# Patent publication US5912269A, “Butyrate prodrugs derived from lactic acid” (Vertex Pharmaceuticals, Inc., priority 1996, dated 1999)
# Read-outs that look alike come from different tables or passages of the source.
# Tests used:
# [1] = cited from earlier work
# γ globin chain = assay: % γ globin chain levels by HPLC, efficacy study in anemic rhesus monkeys; type: in vivo
# Protocol: (§1) The efficacy of compound IIIc administered in conjunction with hydroxyurea was tested on six anemic rhesus monkeys divided into three groups of two each. Each group was studied in two phases, as shown below. Fetal hemoglobin cells (F cells), Hemoglobin F level in total Hemoglobin (% Hb F) and % γ globin chain levels were monitored before and after each of the two phases. % F cells were measured according to the protocol described in Betke et al, Blut., 4, pp. 241-9 (1958). % Hb F and % γ globin chain synthesis were measured using High Performance Liquid Chromatography (HPLC) according to the protocol described in Huisman, J. Chromagtogr., 418, pp. 277 (1987).
# [2] = Triglyceride and ALT levels during efficacy study in anemic rhesus monkeys; details: all three groups, prior to or during the two phases
# Hemoglobin F = Hemoglobin F level in total hemoglobin (% Hb F) by HPLC, efficacy study in anemic rhesus monkeys; type: in vivo
# Protocol: as §1
# [3] = test system: Fetal hemoglobin cells (F cells); assay: Fetal hemoglobin cells (% F cells), efficacy study in anemic rhesus monkeys; type: in vivo
# [4] = rhesus monkey, in vivo
# [5] = test system: sickle cell anemia patients; details: cited from earlier work
# [6] = Groups II and III (compound IIIc)
# [7] = Group I (hydroxyurea in Phase I, hydroxyurea + compound IIIc in Phase II)
smiles,measurement,setting,value
CCCC(=O)OCOC(=O)C(C)(C)C [AN-9],formaldehyde-producing metabolites in vivo,[1],elicit metabolites that may produce formaldehyde in vivo
CCCC(=O)O[C@@H](C)C(=O)OCC [Compound IIIc],γ-globin chain levels,γ globin chain; [6],no measurable change
same,levels of ALT,[2],no detectable difference
same,levels of the triglycerides,[2],no detectable difference
same,HbF,Hemoglobin F; [6],no measurable change
same,% F cell count at the end of Phase II,"[3]; Animal 2, group II, compound IIIc 1 g/kg/TID, 5 weeks, 8-10% before Phase I",22%
same,% F cell count at the end of Phase I,"[3]; Animal 2, group II, compound IIIc 1 g/kg/day, 5 weeks, 8-10% before Phase I",15%
same,increase in % F cells,[3]; [6],small but significant increase
"NC(=O)NO [Hydroxyurea, hydroxyurea]",% γ-globin chain levels,γ globin chain; [7],measurable increase
same,levels of ALT,[4],no detectable difference
same,levels of the triglycerides,[4],no detectable difference
same,% Hb F level,Hemoglobin F; [7],measurable increase
same,fetal hemoglobin production and sickling crisis,[5],stimulates fetal hemoglobin production and reduces sickling crisis
same,% F cell count at the end of Phase I,"[3]; Animal 1, group I, hydroxyurea 50 mg/kg/day, 5 weeks, 8-10% before Phase I",25%
